Usually MIC stands for the lowest concentration found to suppress growth.

Our source for the MIC values is patent US7223759B2, “Antibacterial 3,5-diaminopiperidine-substituted aromatic and heteroaromatic compounds” (Anadys Pharmaceuticals, Inc., priority 2003, dated 2007).

Molecules are shown by their SMILES.

The first test relates to Escherichia coli (ATCC25922) or Staphylococcus aureus (ATCC25923). The experiment in a line: Antibacterial MIC, microdilution method in Mueller-Hinton medium. Conditions: Escherichia coli, 18 h, MIC in E. coli or S. aureus; two-fold serial dilutions 64 to 0.5 μg/ml in duplicate; 18 hours of incubation at 35° C.; read-out: Potency (MIC). In kind it is cell-based. In outline: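 Two-fold serial dilutions from 64 to 0.5 μg/ml, in duplicate, by broth microdilution in Mueller-Hinton medium (NCCLS M7-A5). MIC taken as the lowest concentration preventing visible growth after 18 h at 35° C.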
In general terms: Broth dilution looks for growth in wells or tubes with falling amounts of substance.
`Cc1cc(=O)oc2cc(Nc3nc(N4C[C@H](N)C[C@H](N)C4)nc(N4CCC[C@@H](O)C4)n3)ccc12` [7-[4-((3R,5S)-3,5-Diamino-piperidin-1-yl)-6-((R)-3-hydroxy-piperidin-1-yl)-[1,3,5]triazin-2-ylamino]-4-methyl-chromen-2-one]: the MIC was less than 64 µg/mL. Still for that read-out and setting: the figure for `Cc1cc(=O)oc2cc(Nc3nc(N4CCCCC4)nc(N4CCCC4)n3)ccc12.Cl` [7-[4-((3R,5S)-33,5-Diamino-piperidin-1-yl)-6-((3R,4S)-3,4-dihydroxy-pyrrolidin-1-yl)-[1,3,5]triazin-2-ylamino]-4-methyl-chromen-2-one] is more than 64 µg/mL; for `Cc1cc(=O)oc2cc(Nc3nc(N4C[C@H](N)C[C@H](N)C4)nc(N4C[C@@H](N)C[C@@H](O)C4)n3)ccc12` [7-[4-((3S,5R)-3-Amino-5-hydroxy-piperidin-1-yl)-6-((3R,5S)-3,5-diamino-piperidin-1-yl)-[1,3,5]triazin-2-ylamino]-4-methyl-chromen-2-one] it is more than 64 µg/mL; for `N[C@@H]1C[C@H](N)CN(c2nc(N3CCC(n4c(=O)[nH]c5ccccc54)CC3)nc(N3C[C@H](N)C[C@H](N)C3)n2)C1` [8-(4,6-Bis-((3R,5S)-3,5-0diamino-piperidin-1-yl)-[1,3,5]triazin-2-yl)-1-phenyl-1,3,8-triaza-spiro[4.5]decan-4-one] it is more than 64 µg/mL.

Consider `COC(=O)c1ccc(Nc2nc(N3CCCCC3)nc(N3CCCCC3)n2)c(O)c1` [44-[4,6-Bis-((3R,5S)-3,5-diamino-piperidin-1-yl)-[1,3,5]triazin-2-ylamino]-3-hydroxy-benzoic acidmethyl ester], for which the MIC is more than 64 µg/mL. On the same count and under the same terms, the figure for `N[C@@H]1C[C@H](N)CN(c2cc(N3C[C@H](N)C[C@H](N)C3)cc(N(c3ccc([N+](=O)[O-])cc3)c3ccc([N+](=O)[O-])cc3)c2)C1` [(3,5-Bis-((3R,5S)-3,5-diamino-piperidin-1-yl)-phenyl)-bis-(4-nitro-phenyl)-amine] is less than 64 µg/mL; for `Cl.NC1CCCN(c2nc(Nc3ccc(Cl)c(Cl)c3)nc(N3CCCCC3)n2)C1` [(3R,5S)-1-[4-(3-Amino-piperidin-1-yl)-6-(3,4-dichloro-phenylammino)-[1,3,5]triazin-22-yl]-piperidine-3,5-diamine] it is less than 64 µg/mL.

The same test, now with this note: Escherichia coli, 18 h, read-out: Potency (MIC).
As to `Cc1cc(=O)oc2cc(Nc3nc(N4C[C@H](N)C[C@H](N)C4)nc(N4C[C@H](O)C[C@@H](O)C4)n3)ccc12` [7-[4-((3R,5S)-3,5-Diamino-piperidin-1-yl)-6-((3R,5R)-3,5-dihydroxy-piperidin-1-yl)-[1,3,5]triazin-2-ylamino]-4-methyl-chromen-2-one], the MIC is more than 64 µg/mL. `Cc1cc(=O)oc2cc(Nc3nc(N4C[C@H](N)C[C@H](N)C4)nc(N4C[C@@H](N)[C@@H](N)C4)n3)ccc12` [7-[4-((3R,5S)-3,5-diamino-piperidin-1-yl)-6-((3R,4S)-3,4-diamino-pyrrolidin-1-yl)-[1,3,5]triazin-2-ylamino]-4-methyl-chromen-2-one]: the MIC was more than 64 µg/mL.

As to `Cc1cc(=O)oc2cc(Nc3nc(N4C[C@H](N)C[C@H](N)C4)nc(N4C[C@H](CN)C[C@H](CN)C4)n3)ccc12` [7-[4-((3S,5R)-3,5-Bis-(aminomethyl)-piperidin-1-yl)-6-((3R,5S)-3,5-diamino-piperidin-1-yl)-[1,3,5]triazin-2-ylamino]-4-methyl-chromen-2-one], the MIC was more than 64 µg/mL. On the same count and under the same terms, the figure for `Cc1cc(=O)oc2cc(Nc3nc(N(CCN)CCN)nc(N4C[C@H](N)C[C@H](N)C4)n3)ccc12` [7-[4-[Bis-(2-amino-ethyl)-amino]-6-((3R,5S)-3,5-diamino-piperidin-1-yl)-[1,3,5]triazin-2-ylamino]-4-methyl-chromen-2-one] is more than 64 µg/mL. On the same count and under the same terms, the value for `N[C@@H]1C[C@H](N)CN(c2cc(Nc3ccc([N+](=O)[O-])cc3)cc(N3C[C@H](N)C[C@H](N)C3)c2)C1` [(3,5-Bis-((3R,5S)-3,5-diamino-piperidin-1-yl)-phenyl)-(4-nitro-phenyl)-amine] was more than 64 µg/mL.
